We go through 47 compounds from patent US11814364B2, “Pyridine N-oxide derivatives useful as factor XIa inhibitors” (Janssen Pharmaceutica NV, priority 2021, dated 2023).

The test addresses human plasma kallikrein (Homo sapiens, UniProt P03952). The experiment in a line: Kallikrein inhibition FLINT assay with quenched AMC peptide substrate Z-Gly-Pro-Arg-AMC (end point EP or kinetic KIN reads). The format is biochemical. To be noted: kinetic reads at 5 min intervals over 30 min; read-out: Kallikrein (KIN) IC50. The protocol:
A fluorescence intensity (FLINT) based assay was used to monitor inhibition of human plasma kallikrein.
The Kallikrein FLINT assay was used with the following Z-Gly-Pro-Arg-AMC assay buffer: 50 mM Tris, pH 7.5, 100 mM NaCl, 5 mM CaCl2, 0.1 mg/mL BSA, 0.03% CHAPS. Assay buffer was prepared by mixing all ingredients fresh. 2× Z-Gly-Pro-Arg-AMC peptide substrate was prepared by diluting 10 mM stock into 1× assay buffer for a 100 μM working concentration (50 μM final concentration).
Test compound(s) were run in an 11-point, 3-fold serial dilution with a final top compound concentration of 1 μM. Final DMSO in assay was 2%. Plasma kallikrein was pre-incubated for 30-minute with compound and then 50 μM substrate was added to initiate the reaction. The assay was run with either end point (EP) reads at 30 min or kinetic (KIN) reads at 5 min intervals over 30 minutes.
Percent inhibition (IC50) curves were generated per compound tested, and data was analyzed using a 4-parameter logistic fit using GeneData Screener. The relative fluorescence unit (RFU) values were normalized to percent inhibition using the following equation: % inhibition=((HC−LC)−(compound−LC)/(HC−LC))*100
An 11-point dose response curve for the test compound(s) was generated using GENDATA to determine IC50 value based on the following equation: Y=Bottom+(Top−Bottom)/(1+10^((log IC50−X)*HillSlope))
Results listed in columns with […] designation were measured using endpoint reads where a single fluorescence reading was measured for each well at a 30 min timepoint.

Chain of human plasma kallikrein (P03952 391-638 limits assumed): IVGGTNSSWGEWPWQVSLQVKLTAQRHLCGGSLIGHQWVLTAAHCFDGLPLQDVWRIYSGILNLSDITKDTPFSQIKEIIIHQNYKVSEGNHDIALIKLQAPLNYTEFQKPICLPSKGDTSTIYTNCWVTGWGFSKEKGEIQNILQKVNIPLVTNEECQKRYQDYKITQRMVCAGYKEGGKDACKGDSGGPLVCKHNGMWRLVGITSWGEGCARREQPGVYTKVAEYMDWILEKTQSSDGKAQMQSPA
Chain of human plasma kallikrein (P03952 20-390 partner limits assumed): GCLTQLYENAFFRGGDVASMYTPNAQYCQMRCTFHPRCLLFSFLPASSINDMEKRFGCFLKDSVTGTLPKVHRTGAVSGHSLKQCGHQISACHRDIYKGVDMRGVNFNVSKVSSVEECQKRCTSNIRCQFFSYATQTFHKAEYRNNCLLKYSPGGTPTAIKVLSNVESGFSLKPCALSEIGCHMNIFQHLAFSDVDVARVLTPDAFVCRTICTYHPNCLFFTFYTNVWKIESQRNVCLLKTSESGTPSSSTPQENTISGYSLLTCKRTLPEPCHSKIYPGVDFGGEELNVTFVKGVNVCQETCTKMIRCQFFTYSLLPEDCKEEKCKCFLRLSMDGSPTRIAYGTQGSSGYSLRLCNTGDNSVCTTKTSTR

Turning to `COCC(=O)N(C)CC(c1ccc(-c2c(-n3cnnn3)ccc(Cl)c2F)c[n+]1[O-])n1cc(-c2ccnc(C(F)(F)F)c2)cn1` (centres unmarked) [Example P427], the IC50 came out at 0.0668 µM. On to `Nc1ncc(-c2cnn(C(Cc3ccc(Cl)cc3)c3ccc(-c4c(-n5cnnn5)ccc(Cl)c4F)c[n+]3[O-])c2)cc1F` (centres unmarked) [Example P162], for which the IC50 worked out at 0.0068 µM. Turning to `COc1cc(C(CC2CC2)n2cc(-c3ccnn3C)cn2)[n+]([O-])cc1-c1c(-n2cnnn2)ccc(Cl)c1F` (single isomer, unassigned) [Example P490], the 50% inhibitory concentration (IC50) stood at 0.0163 µM. For the compound `[O-][n+]1cc(-c2c(-n3cnnn3)ccc(Cl)c2F)ccc1C(Cn1cc(F)cn1)n1cc(-c2ccnc(F)c2)cn1` (centres unmarked) [Example P352], the IC50 stood at 0.0134 µM. With `Cn1nc(C(F)(F)F)cc1-c1cnn(C(CC2CC2)c2ccc(-c3c(-n4cnnn4)ccc(Cl)c3F)c[n+]2[O-])c1` (centres unmarked) [Example P548], the IC50 was 0.514 µM. `[O-][n+]1cc(-c2c(-n3cnnn3)ccc(Cl)c2F)ccc1C(Cc1ccc(F)cc1)n1cc(-c2nnn(C(F)F)c2Cl)cn1` (centres unmarked) [Example P610]: the IC50 amounted to 0.582 µM. In the case of `NC(=O)c1ccc(-c2cnn(C(Cc3ccn(C(F)F)n3)c3ccc(-c4c(-n5cnnn5)ccc(Cl)c4F)c[n+]3[O-])c2)cc1F` (single isomer, unassigned) [Example P932], the 50% inhibitory concentration (IC50) is 0.027 µM. On to `O=C(c1ccn(CC(c2ccc(-c3c(-n4cnnn4)ccc(Cl)c3F)c[n+]2[O-])n2cc(-c3ccnc(C(F)(F)F)c3)cn2)n1)N1CCCCC1` (single isomer, unassigned) [Example P449], for which the IC50 worked out at 0.012 µM. For `COc1cc(C(CC2CC2)n2cc(-c3ccnn3C)cn2)[n+]([O-])cc1-c1c(-n2cnnn2)ccc(Cl)c1F` (single isomer, unassigned) [Example P491], the IC50 turned out to be 0.0021 µM. With `COC(=O)Nc1ccc(-c2cnn(C(COC(C)C)c3ccc(-c4c(-n5cnnn5)ccc(Cl)c4F)c[n+]3[O-])c2)cc1` (centres unmarked) [Example P229], the IC50 was determined as 0.271 µM.

Take `NC(=O)c1ccc(-c2cnn(C(CN3CCCC3=O)c3ccc(-c4c(-n5cc(C(F)(F)F)nn5)ccc(Cl)c4F)c[n+]3[O-])c2)cc1F` (single isomer, unassigned) [Example P937]: the IC50 was 0.0027 µM. Take `COC(=O)N(C)CC(c1ccc(-c2c(-n3cnnn3)ccc(Cl)c2F)c[n+]1[O-])n1cc(-c2cc[n+]([O-])c(C(F)F)c2)cn1` (single isomer, unassigned) [Example P392]: the IC50 was 0.0641 µM. In the case of `COC(=O)Nc1ccc(-c2cnn(C(CC3CCCCC3)c3ccc(-c4c(-n5cnnn5)ccc(Cl)c4F)c[n+]3[O-])c2)cc1` (centres unmarked) [Example P102], the IC50 was determined as 0.0722 µM. The same measure for `CC(=O)N(C)CC(c1ccc(-c2c(-n3cnnn3)ccc(Cl)c2F)c[n+]1[O-])n1cc(-c2cc[n+]([O-])cc2)cn1` (centres unmarked) [Example P351]: 0.131 µM; for `COCc1ccn(CC(c2ccc(-c3c(-n4cnnn4)ccc(Cl)c3F)c[n+]2[O-])n2cc(-c3ccc(N)nc3F)cn2)n1` (centres unmarked) [Example P492]: 0.0028 µM.

Take `O=C(C1CC1CC(c1ccc(-c2c(-n3cnnn3)ccc(Cl)c2F)c[n+]1[O-])n1cc(-c2ccccc2)cn1)N1CCC(c2ccccc2)C1` (centres unmarked) [Example P196]: the IC50 stood at 0.995 µM.

Turning to `CCC(c1cc(OC)c(-c2cc(Cl)ccc2-n2cc(C(F)(F)F)nn2)c[n+]1[O-])n1cc(-c2ncnn2C(F)F)cn1` (single isomer, unassigned) [Example P923], the IC50 is 0.0385 µM.

For `O=C1c2ccccc2CN1CC(c1ccc(-c2cc(Cl)ccc2-n2cnnn2)c[n+]1[O-])n1cc(-c2ccncc2)cn1` (centres unmarked) [Example P293], the half-inhibitory concentration (IC50) amounted to 0.0676 µM. For the compound `[O-][n+]1cc(-c2c(-n3cnnn3)ccc(Cl)c2F)ccc1[C@@H](Cc1cn(C(F)F)nn1)n1cc(-c2ccnc(C(F)(F)F)c2)cn1` [Example P748], the IC50 stood at 0.0064 µM. Consider `CC(C)Oc1cc(C(CC2CC2)n2cc(-c3cnn(C)c(=O)c3)cn2)[n+]([O-])cc1-c1c(-n2cnnn2)ccc(Cl)c1F` (centres unmarked) [Example P146], for which the IC50 came to 0.571 µM. `[O-][n+]1cc(-c2c(-n3cnnn3)ccc(Cl)c2F)ccc1[C@@H](CC1CCC1)n1cc(-c2cn(C(F)F)nn2)cn1` [Example P657]: the IC50 came out at 0.468 µM. On to `O=C(O)c1ccc(-c2cnn(C(CC3CC3)c3ccc(-c4c(C(F)F)ccc(Cl)c4F)c[n+]3[O-])c2)cc1` (centres unmarked) [Example Q16], for which the IC50 is 0.305 µM. Take `COCc1ccnn1CC(c1ccc(-c2c(-n3cnnn3)ccc(Cl)c2F)c[n+]1[O-])n1cc(-c2ccc(N)nc2F)cn1` (centres unmarked) [Example P489]: the IC50 turned out to be 0.0579 µM. With `Cn1ncnc1-c1cnn([C@H](CCOC(F)F)c2ccc(-c3c(-n4cnnn4)ccc(Cl)c3F)c[n+]2[O-])c1` [Example P550], the IC50 is 0.018 µM. Turning to `CC(C)(O)C[C@H](c1ccc(-c2c(-n3cnnn3)ccc(Cl)c2F)c[n+]1[O-])n1cc(-c2ccnn2C(F)F)cn1` [Example P648], the half-inhibitory concentration (IC50) amounted to 0.532 µM. Turning to `NC(=O)C1CC1CC(c1ccc(-c2cc(Cl)ccc2-n2cnnn2)c[n+]1[O-])n1cc(-c2ccc(C(=O)O)cc2)cn1` (centres unmarked) [Example P114], the concentration for half-maximal inhibition (IC50) was 0.184 µM. With `O=C(O)c1ccc(-c2cnn(C(CC(=O)N3CCCC3)c3ccc(-c4c(-n5cc(C(F)(F)F)nn5)ccc(Cl)c4F)c[n+]3[O-])c2)cc1F` (centres unmarked) [Example P901], the IC50 was determined as 0.287 µM. `NC(=O)c1ccc(-c2cnn(C(Cc3ccn(C(F)F)n3)c3ccc(-c4c(-n5cc(Cl)nn5)ccc(Cl)c4F)c[n+]3[O-])c2)cc1F` (single isomer, unassigned) [Example P893]: the IC50 came out at 0.0205 µM. Turning to `CC(C)(C)OCC[C@H](c1ccc(-c2c(-n3cnnn3)ccc(Cl)c2F)c[n+]1[O-])n1cc(-c2ccnn2C(F)F)cn1` [Example P640], the IC50 is 0.179 µM.

`COc1ccc(CC(c2ccc(-c3cc(Cl)ccc3-n3cnnn3)c[n+]2[O-])n2cc(-c3ccc(C(=O)NC4CC4)cc3)cn2)cc1` (centres unmarked) [Example P86]: the IC50 turned out to be 0.023 µM. For `[O-][n+]1cc(-c2c(-n3cc(Cl)nn3)ccc(Cl)c2F)ccc1C(Cn1cc(F)cn1)n1cc(-c2ccnc(C(F)(F)F)c2)cn1` (centres unmarked) [Example P479], the IC50 was 0.185 µM. Consider `O=C(O)c1ccc(-c2cnn(C(Cc3ncco3)c3ccc(-c4c(-n5cc(C(F)(F)F)nn5)ccc(Cl)c4F)c[n+]3[O-])c2)cc1F` (centres unmarked) [Example P912], for which the IC50 worked out at 0.0118 µM.

With `COCC[C@H](c1ccc(-c2c(-n3cnnn3)ccc(Cl)c2F)c[n+]1[O-])n1cc(-c2c(Cl)cnn2C(F)F)cn1` [Example P623], the IC50 turned out to be 0.217 µM.

Turning to `NC(=O)c1ccnn1CC(c1ccc(-c2c(C(F)F)ccc(Cl)c2F)c[n+]1[O-])n1cc(-c2ccnc(C(F)(F)F)c2)cn1` (single isomer, unassigned) [Example Q28], the IC50 stood at 0.0946 µM. On to `Cc1cc(C(N)=O)sc1-c1cnn(C(CC2CC2)c2ccc(-c3c(-n4cc(C(F)(F)F)nn4)ccc(Cl)c3F)c[n+]2[O-])c1` (single isomer, unassigned) [Example P957], for which the half-maximal inhibitory concentration (IC50) was 0.222 µM. As for `[O-][n+]1ccc(-c2cnn(C(Cn3cc(F)cn3)c3ccc(-c4c(-n5cnnn5)ccc(Cl)c4F)c[n+]3[O-])c2)cc1` (centres unmarked) [Example P360], the figure is 0.0366 µM. Take `COCCC(c1ccc(-c2c(-n3cnnn3)ccc(Cl)c2F)c[n+]1[O-])n1cc(C2CCN(C(=O)OC)CC2)cn1` (centres unmarked) [Example P166]: the IC50 amounted to 0.923 µM. On to `O=C(NC1CC1)c1ccc(-c2cnn(C(CC3CCCCO3)c3ccc(-c4c(-n5cnnn5)ccc(Cl)c4F)c[n+]3[O-])c2)cc1` (single isomer, unassigned) [Example P77], for which the IC50 came to 0.0362 µM. As for `COC(=O)Nc1ccc(-c2cnn(C(Cn3cccn3)c3ccc(-c4c(-n5cnnn5)ccc(Cl)c4F)c[n+]3[O-])c2)cc1` (single isomer, unassigned) [Example P273], the IC50 came out at 0.0109 µM. Take `[O-][n+]1cc(-c2c(-n3cnnn3)ccc(Cl)c2F)ccc1[C@@H](CC1CC1)n1cc(-c2nnco2)cn1` [Example P545]: the IC50 turned out to be 0.943 µM.

`[O-][n+]1cc(-c2c(-n3cnnn3)ccc(Cl)c2F)ccc1C(CCOC(F)F)n1cc(-c2c(Cl)cnn2C(F)F)cn1` (centres unmarked) [Example P574]: the IC50 turned out to be 0.0079 µM.

`COC(=O)N(C)CC(c1ccc(-c2c(-n3cnnn3)ccc(Cl)c2F)c[n+]1[O-])n1cc(-c2ccc(N)nc2F)cn1` (centres unmarked) [Example P482]: the half-maximal inhibitory concentration (IC50) came to 0.0229 µM.

On to `Nc1nc(Cl)c(-c2cnn(C(CC3CC3)c3ccc(-c4c(-n5cnnn5)ccc(Cl)c4F)c[n+]3[O-])c2)s1` (centres unmarked) [Example P624], for which the IC50 was 0.0049 µM.

For the compound `NC(=O)Cc1ccn(CC(c2ccc(-c3c(-n4cnnn4)ccc(Cl)c3F)c[n+]2[O-])n2cc(-c3ccnc(C(F)(F)F)c3)cn2)n1` (centres unmarked) [Example P486], the concentration for half-maximal inhibition (IC50) was 0.0102 µM.

As to `COC(=O)Nc1ccc(-c2cnn(C(CC(C)C)c3ccc(-c4c(-n5cnnn5)ccc(Cl)c4F)c[n+]3[O-])c2)cc1` (centres unmarked) [Example P179], the IC50 came out at 0.179 µM. As to `NC(=O)c1ccn(CC(c2ccc(-c3c(-n4cnnn4)ccc(Cl)c3F)c[n+]2[O-])n2cc(-c3ccncc3)cn2)n1` (centres unmarked) [Example P443], the IC50 came to 0.0017 µM. `[O-][n+]1cc(-c2cc(Cl)ccc2-n2cnnn2)ccc1C(Cc1ccc(Cl)cc1)n1cc(-c2ccncc2)cn1` (centres unmarked) [Example P171]: the IC50 is 0.0153 µM.

As usually defined, the IC50 is the concentration at which inhibition is half-maximal.
